Measured values reported in ChEMBL document CHEMBL1132808, “Solid-phase synthesis of di- and tripeptidic hydroxamic acids as inhibitors of procollagen C-proteinase” (Bioorg Med Chem Lett, 2000).
pIC50: −log10 of the molar value. “And” between values parts separate entries of the source, which are not always exact repeats. Equal values may be shown once. Where a SMILES comes first, the peptide text is derived from it. [ ]: non-standard residue; d: D form. The star is where a group is joined. ξ: configuration not given here. ξW = NC(Cc1c[nH]c2ccccc12)C(=O)O; Cbz = O=C(OCc1ccccc1)*; ξT = CC(O)C(N)C(=O)O; NHOH = ON*

target: T1, Bone morphogenetic protein 1 (Homo sapiens, UniProt P13497); assay: Inhibitory effect against Procollagen C-terminal proteinase
T1 sequence (P13497 whole entry): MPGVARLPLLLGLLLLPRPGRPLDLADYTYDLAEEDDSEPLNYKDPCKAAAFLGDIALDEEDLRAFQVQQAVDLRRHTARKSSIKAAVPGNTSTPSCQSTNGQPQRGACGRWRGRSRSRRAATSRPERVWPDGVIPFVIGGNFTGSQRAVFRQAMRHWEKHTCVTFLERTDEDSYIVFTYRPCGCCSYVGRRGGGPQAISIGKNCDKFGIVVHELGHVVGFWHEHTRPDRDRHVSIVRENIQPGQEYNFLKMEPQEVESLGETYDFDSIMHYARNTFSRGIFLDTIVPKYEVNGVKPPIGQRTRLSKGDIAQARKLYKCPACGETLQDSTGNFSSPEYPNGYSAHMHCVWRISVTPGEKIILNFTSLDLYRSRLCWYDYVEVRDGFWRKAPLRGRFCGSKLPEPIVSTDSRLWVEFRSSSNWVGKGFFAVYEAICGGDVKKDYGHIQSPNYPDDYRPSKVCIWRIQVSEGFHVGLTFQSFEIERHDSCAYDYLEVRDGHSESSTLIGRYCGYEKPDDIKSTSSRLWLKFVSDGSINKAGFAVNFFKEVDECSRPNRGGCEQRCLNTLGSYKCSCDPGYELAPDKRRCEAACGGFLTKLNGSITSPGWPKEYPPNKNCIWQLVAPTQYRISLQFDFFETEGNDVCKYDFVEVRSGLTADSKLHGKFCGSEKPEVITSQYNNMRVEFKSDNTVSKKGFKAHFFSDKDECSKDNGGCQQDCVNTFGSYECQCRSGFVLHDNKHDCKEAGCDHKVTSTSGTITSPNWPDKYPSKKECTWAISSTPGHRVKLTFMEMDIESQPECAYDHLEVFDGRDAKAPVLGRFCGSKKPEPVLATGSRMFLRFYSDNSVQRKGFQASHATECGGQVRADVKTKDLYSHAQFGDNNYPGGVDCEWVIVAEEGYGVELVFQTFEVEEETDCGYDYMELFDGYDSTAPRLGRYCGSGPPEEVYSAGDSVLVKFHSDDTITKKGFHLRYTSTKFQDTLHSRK

| pIC50 | SMILES |
| --- | --- |
| 4.17 | O=C(NC(Cc1c[nH]c2ccccc12)C(=O)NO)OCc1ccccc1 (stereo not given) |
| 4.17 | CNC(=O)[C@H](CCC(N)=O)NC(=O)[C@H](CC(=O)O)CC(=O)NO |
| 6.66 | CC[C@@H](C)[C@@H](NC(=O)OCc1ccccc1)C(=O)N[C@H](Cc1ccccn1)C(=O)NO |
| 4.72 | O=C(CCCNC(=O)OCc1ccccc1)N[C@@H](Cc1c[nH]c2ccccc12)C(=O)NO |
| 7.28 | CC[C@@H](C)[C@@H](NCN(Cc1ccc(F)cc1)C(=O)c1cccc(Cl)c1)C(=O)N[C@H](Cc1cscn1)C(=O)NO |
| 7.17 | CC[C@H](C)[C@H](NS(=O)(=O)c1cc(C)c(Cl)cc1C)C(=O)N[C@@H](CNC(=O)OCc1ccccc1)C(=O)NO |
| 6.96 | CC[C@@H](C)[C@@H](NCN(Cc1ccc(F)cc1)C(=O)c1cccc(C)c1)C(=O)N[C@H](Cc1cscn1)C(=O)NO |
| 7.59 | CC[C@H](C)[C@H](NS(=O)(=O)c1ccc(Br)c(Br)c1)C(=O)N[C@@H](CNC(=O)OCc1ccccc1)C(=O)NO |
| 7.19 | CC[C@H](C)[C@H](NS(=O)(=O)c1cc(Cl)ccc1Cl)C(=O)N[C@@H](CNC(=O)OCc1ccccc1)C(=O)NO |
| 3.55 | CC(=O)N[C@@H](Cc1ccc(O)cc1)C(=O)NCC(=O)NO |
| 7.37 | CC[C@@H](C)[C@@H](NS(=O)(=O)C1=CCC(C)(Cl)C=C1C)C(=O)N[C@H](Cc1cscn1)C(=O)NO (stereo not given in full) |
| 6.70 | CC[C@@H](C)[C@@H](NC(=O)OCc1ccccc1)C(=O)N[C@H](Cc1ccc(Br)cc1)C(=O)NO |
| 5.72 | CC(C)C(NC(=O)OCc1ccccc1)C(=O)N[C@H](Cc1c[nH]c2ccccc12)C(=O)NO (stereo not given in full) |
| 6.72 | CC[C@@H](C)[C@@H](NC(=O)OCc1ccccc1)C(=O)NC(Cc1ccccc1Cl)C(=O)NO (stereo not given in full) |
| 6.06 | CCCC(NC(=O)OCc1ccccc1)C(=O)N[C@H](Cc1c[nH]c2ccccc12)C(=O)NO (stereo not given in full) |
| 7.49 | CC[C@H](C)[C@H](NS(=O)(=O)c1cc(Br)c(Br)s1)C(=O)NC(Cc1cscn1)C(=O)NO (stereo not given in full) |
| 7.31 | CC[C@@H](C)[C@@H](NS(=O)(=O)c1cc(Cl)c(Cl)cc1Cl)C(=O)N[C@H](Cc1cscn1)C(=O)NO |
| 7.05 | CC[C@@H](C)[C@@H](NCN(Cc1ccc(F)cc1)C(=O)c1ccc(Br)cc1)C(=O)N[C@H](Cc1cscn1)C(=O)NO |
| 7.11 | CC[C@@H](C)[C@H](NC(=O)C(Cc1ccc(F)cc1)NC(=O)OCc1ccccc1)C(=O)N[C@@H](Cc1cscn1)C(=O)NO (stereo not given in full) |
| 4.77 | O=C(N[C@@H](Cc1ccccc1)C(=O)N[C@@H](Cc1c[nH]c2ccccc12)C(=O)NO)OCc1ccccc1 |

| pIC50 | SMILES |
| --- | --- |
| 7.17 | CC[C@@H](C)[C@H](NC(=O)C(Cc1c[nH]c2ccccc12)NC(=O)OCc1ccccc1)C(=O)N[C@@H](Cc1cscn1)C(=O)NO (stereo not given in full) |
| 7.14 | CC[C@@H](C)[C@@H](NC(=O)OCc1ccc(Cl)c(Cl)c1)C(=O)N[C@H](Cc1cscn1)C(=O)NO |
| 5.30 | CC[C@H](C)[C@@H](NC(=O)Nc1ccccc1Cl)C(=O)N[C@H](Cc1cc2ccccc2[nH]1)C(=O)NO |
| 7.05 | CC[C@@H](C)[C@@H](NCN(Cc1ccc(F)cc1)C(=O)c1ccc(F)cc1)C(=O)N[C@H](Cc1cscn1)C(=O)NO |
| 6.60 | CC[C@@H](C)[C@@H](NC(=O)OCc1ccccc1)C(=O)N[C@H](Cc1cnc[nH]1)C(=O)NO |
| 5.92 | O=C(NC(C(=O)N[C@H](Cc1c[nH]c2ccccc12)C(=O)NO)c1ccccc1)OCc1ccccc1 (stereo not given in full) |
| 6.85 | CC[C@@H](C)[C@@H](NCN(Cc1ccc(F)cc1)C(=O)c1ccc(C(C)(C)C)cc1)C(=O)N[C@H](Cc1cscn1)C(=O)NO |
| 7.11 | CC[C@@H](C)[C@H](NC(=O)C(COCc1ccccc1)NC(=O)OCc1ccccc1)C(=O)N[C@@H](Cc1cscn1)C(=O)NO (stereo not given in full) |
| 7.21 | CC[C@@H](C)[C@@H](NC(=O)OCc1ccccc1)C(=O)NCC(NC(=O)OCc1ccccc1)C(=O)NO (stereo not given in full) |
| 7.52 | CC[C@@H](C)[C@@H](NS(=O)(=O)c1ccc(Br)c(Br)c1)C(=O)N[C@H](Cc1cscn1)C(=O)NO |
| 6.68 | CC[C@@H](C)[C@@H](NC(=O)OCc1ccccc1)C(=O)N[C@H](Cc1ccc(Br)s1)C(=O)NO |
| 4.66 | CNC(=O)C1CCCN1C(=O)[C@H](CCC(N)=O)NC(=O)[C@H](CC(=O)O)CC(=O)NO (stereo not given in full) |
| 7.28 | CC[C@H](C)[C@H](NS(=O)(=O)c1cc(Br)c(Br)s1)C(=O)N[C@@H](CNC(=O)OCc1ccccc1)C(=O)NO |
| 7.37 | CC[C@@H](C)[C@H](NC(=O)C(CCSC)NC(=O)OCc1ccccc1)C(=O)N[C@@H](Cc1cscn1)C(=O)NO (stereo not given in full) |
| 4.70 | O=C(N[C@H](Cc1ccc(O)cc1)C(=O)N[C@@H](Cc1c[nH]c2ccccc12)C(=O)NO)OCc1ccccc1 |
| 6.89 | CC[C@@H](C)[C@@H](NC(=O)OCc1ccccc1)C(=O)NC(Cc1ccc(OC(C)(C)C)cc1)C(=O)NO (stereo not given in full) |
| 5.44 | CC[C@H](C)[C@@H](NC(=O)NCCc1ccccc1)C(=O)N[C@H](Cc1cc2ccccc2[nH]1)C(=O)NO |
| 7.54 | CC[C@@H](C)[C@@H](NS(=O)(=O)c1cc(Cl)ccc1Cl)C(=O)N[C@H](Cc1cscn1)C(=O)NO |
| 5.55 | CC[C@H](C)[C@@H](Nc1cccc(C(F)(F)F)c1)C(=O)N[C@H](Cc1cc2ccccc2[nH]1)C(=O)NO |
| 6.82 | CC[C@@H](C)[C@@H](NC(=O)OCc1cc(Cl)cc(Cl)c1)C(=O)N[C@H](Cc1cscn1)C(=O)NO |

| pIC50 | SMILES |
| --- | --- |
| 7.05 | CC[C@@H](C)[C@@H](NC(=O)OCc1cccc(C(F)(F)F)c1)C(=O)N[C@H](Cc1cscn1)C(=O)NO |
| 4.74 | O=C(N[C@H](Cc1ccccc1)C(=O)N[C@@H](Cc1c[nH]c2ccccc12)C(=O)NO)OCc1ccccc1 |
| 6.96 | CC[C@@H](C)[C@H](NC(=O)C(CC(C)C)NC(=O)OCc1ccccc1)C(=O)N[C@@H](Cc1cscn1)C(=O)NO (stereo not given in full) |
| 5.29 | CC[C@H](C)[C@@H](NC(=O)Nc1cc(Cl)cc(Cl)c1)C(=O)N[C@H](Cc1cc2ccccc2[nH]1)C(=O)NO |
| 6.14 | CC[C@H](C)[C@@H](NC(=O)OCc1ccccc1)C(=O)N[C@H](Cc1c[nH]c2ccccc12)C(=O)NO |
| 5.68 | CC[C@H](C)[C@@H](NC(=O)Nc1ccccc1[N+](=O)[O-])C(=O)N[C@H](Cc1cc2ccccc2[nH]1)C(=O)NO |
| 7.03 | CC[C@@H](C)[C@@H](NC(=O)OCc1ccccc1)C(=O)NCC(NCc1ccccc1)C(=O)NO (stereo not given in full) |
| 6.12 | CC[C@H](C)[C@@H](Nc1ccc(Cl)c(Cl)c1)C(=O)N[C@H](Cc1cc2ccccc2[nH]1)C(=O)NO |
| 5.52 | O=C(O)CCC(NC(=O)OCc1ccccc1)C(=O)N[C@H](Cc1c[nH]c2ccccc12)C(=O)NO (stereo not given in full) |
| 6.70 | CC[C@@H](C)[C@@H](NC(=O)OCc1ccccc1)C(=O)NC(Cc1ccc(-c2ccccc2)cc1)C(=O)NO (stereo not given in full) |
| 6.70 and 6.66 | CC[C@@H](C)[C@@H](NC(=O)OCc1ccccc1)C(=O)N[C@H](Cc1ccc([N+](=O)[O-])cc1)C(=O)NO |
| 7.11 | CC[C@@H](C)[C@@H](NC(=O)OCc1ccccc1Br)C(=O)N[C@H](Cc1cscn1)C(=O)NO |
| 7.30 | CC[C@@H](C)[C@@H](NCN(Cc1ccc(F)cc1)C(=O)c1ccc(Cl)cc1)C(=O)N[C@H](Cc1cscn1)C(=O)NO |
| 7.36 | CC[C@@H](C)[C@H](NC(=O)C(Cc1ccccc1)NC(=O)OCc1ccccc1)C(=O)N[C@@H](Cc1cscn1)C(=O)NO (stereo not given in full) |
| < 3.10 | CC(=O)N[C@@H](CCCNC(=N)N)C(=O)N[C@@H](C)C(=O)NO (Ac-Arg-Ala-{NHOH}) |
| 4.19 | CC(=O)N[C@@H](Cc1ccc(O)cc1)C(=O)N[C@@H](Cc1ccc(O)cc1)C(=O)NCC(=O)NO (Ac-Tyr-Tyr-Gly-{NHOH}) |
| 4.82 | CC(O)C(NC(=O)OCc1ccccc1)C(=O)N[C@@H](Cc1c[nH]c2ccccc12)C(=O)NO (stereo not given in full) (Cbz-[ξT]-Trp-{NHOH}) |
| 4.72 | O=C(NC(Cc1c[nH]c2ccccc12)C(=O)N[C@@H](Cc1c[nH]c2ccccc12)C(=O)NO)OCc1ccccc1 (stereo not given in full) (Cbz-[ξW]-Trp-{NHOH}) |
| 6.96 | CC[C@@H](C)[C@@H](NC(=O)OCc1ccccc1)C(=O)N[C@H](Cc1cscn1)C(=O)NO (stereo in doubt; form 1) |
| 6.96 | CC[C@@H](C)[C@@H](NC(=O)OCc1ccccc1)C(=O)N[C@H](Cc1cscn1)C(=O)NO (stereo in doubt; form 2) |
